The subject of test [1] is NF-κB-SEAP reporter in THP1-Dual cells. Nature of the test: THP1-Dual NF-κB-SEAP reporter counterscreen. The format is cell-based, human. As to conditions: for EC50: read-out: THP1 NFkB EC50. Summed up: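 Reporters measured from supernatant after 24 h compound exposure (10 μM final) in PMA-differentiated (5 ng/mL, 48 h) THP-1 Dual monocytes: ISG54/ISRE-driven Lucia via QUANTI-Luc luminescence; NF-κB-driven SEAP via QUANTI-Blue, 1 h 37° C, 630 nm. Control wells received LPS at 313 ng/mL.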

The subject of test [2] is plasma cytokines IL-6 and MCP1. Nature of the test: Plasma cytokine induction in vivo in mice. Details: species or system mouse. As to conditions: WT C57/BL6 mice, 10 mg/kg, i.v. On the procedure:
FIG. 27A is a bar graph illustrating the ability of NA-42 to induce plasma cytokine expression in vivo in mice. […] Expression is represented as pg/ml.
FIG. 27B is a bar graph illustrating the ability of ND-13 to induce plasma cytokine expression in vivo in mice. […] Expression is represented as pg/ml.
Plasma cytokine levels were evaluated using a cytokine 20-plex mouse ProcartaPlex kit (Invitrogen) for labeling of multiple cytokines within an individual sample and run on a Luminex 200 instrument.
Select chemical entities corresponding to the NA and ND chemofamilies were examined as to their ability to induce the expression of various cytokines in vivo. […] Shown at FIG. 27A is a representative example showing NA-42 induction of IL-6 (top panel) and MCP1 (bottom panel).

The subject of test [3] is IP-10 in human monocyte-derived macrophages. Nature of the test: IP-10 induction in human monocyte-derived macrophages (ELISA). The format is cell-based. As to conditions: dose response. The source says:
FIG. 24 is a graph of NA-42 dose dependent IP-10 induction in human monocyte-derived macrophages. IP-10 expression was monitored by Human CXCL10/IP10 ELISA (R&D Systems, Minneapolis, Minn.) and is expressed as pg/ml. Shown are group means+/−standard deviation; ****p<0.0001.
FIG. 25 is a graph of ND-13 dose dependent IP-10 induction in human monocyte-derived macrophages. IP-10 expression was monitored by Human CXCL10/IP10 ELISA (R&D Systems, Minneapolis, Minn.) and is expressed as pg/ml. Shown are group means+/−standard deviation; ****p<0.0001.
As discussed above with regard to Example 19, target specificity of chemical entities corresponding to the ND and NA chemofamilies was examined by dose-dependent expression of IP-10 in mBMDMs. In this example, 23, target specificity of chemical entities corresponding to the ND and NA chemofamiles was examined by determining dose-dependent expression of IP-10 in human primary cells, specifically monocyte-derived macrophages. […] For FIGS. 24-25, IP-10 expression was monitored by Human CXCL10/IP10 ELISA (R&D Systems, Minneapolis, Minn.), and is expressed at FIGS. 24-25 as pg/ml.
For orientation: In an ELISA, binding on a coated surface is turned into a signal by an enzyme label.

The mark [4] stands for this setting: Homo sapiens, THP1-Dual, Human Reporter Cell Line, 8-point dose response.
Setting [5] is: Homo sapiens, THP1-Dual, Human Reporter Cell Line THP1.

Read-outs that look alike come from different tables or passages of the source.

As to `O=C(Nc1ccc(N2CCN(C(=O)c3cccs3)CC2)cc1)c1ccc(Cl)c2ccccc12` [NA13], in test [1] (setting [4]), the EC50 amounted to 1.22 µM. As for `CCOc1cccc(COc2ccc(C(=O)Nc3ccc(N4CCN(C(=O)c5cccs5)CC4)cc3)cc2)c1` [NA42, 4-((3-ethoxybenzyl)oxy)-N-(4-(4-(thiophene-2-carbonyl)piperazin-1-yl)phenyl)benzamide], in test [1] (setting [4]), the EC50 came out at 3.04 µM. The same measure, in the same setting: the result for `O=C(Nc1ccc(N2CCN(C(=O)c3ccsc3)CC2)cc1)c1ccc(OCc2ccccc2)nc1` [NA-1] reads 2.07 µM; that for `O=C(Nc1ccc(N2CCN(C(=O)c3cccs3)CC2)cc1)c1ccc(Br)cc1` [NA-14], approximately 2.42 µM. As for `Cc1c(Br)ccc(C(=O)Nc2ccc(N3CCN(C(=O)c4cccs4)CC3)cc2)c1C` [NA-16], the EC50 in test [1] (setting [4]) is approximately 5.23 µM.

For `O=C(Nc1ccc(N2CCN(C(=O)c3cccs3)CC2)cc1)c1sc2cc(Cl)ccc2c1Cl` [NA-20], the EC50 in test [1] (setting [4]) was 2.76 µM.

Consider `O=C(Nc1ccc(N2CCN(C(=O)c3cccs3)CC2)cc1)c1cccc2c(Br)cccc12` [NA-21, 5-bromo-N-{4-[4-(2-thienylcarbonyl)-1-piperazinyl]phenyl}-1-naphthamide], for which the EC50 in test [1] (setting [4]) is 1.08 µM. Same read-out and setting: the result for `O=C(Nc1ccc(N2CCN(C(=O)c3cccs3)CC2)cc1)c1ccc(OCc2ccc(F)c(F)c2F)cc1` [NA-23] reads approximately 2.31 µM.

With `COc1cccc(COc2ccc(C(=O)Nc3ccc(N4CCN(C(=O)c5cccs5)CC4)cc3)cc2)c1` [NA-24, 4-((3-methoxybenzyl)oxy)-N-(4-(4-(thiophene-2-carbonyl)piperazin-1-yl)phenyl)benzamide], the EC50 in test [1] (setting [4]) was found to be 4.16 µM. The same measure, in the same setting: the result for `Cc1ccc(COc2ccc(C(=O)Nc3ccc(N4CCN(C(=O)c5cccs5)CC4)cc3)cc2)cc1` [NA-25] reads 5 µM; that for `CCOc1ccc(C(=O)Nc2ccc(N3CCN(C(=O)c4cccs4)CC3)cc2)cc1Br` [NA-30], 1.05 µM. Still for that read-out and setting: then `O=C(Nc1ccc(N2CCN(C(=O)c3cccs3)CC2)cc1)c1ccc(-c2cc3ccccc3oc2=O)cc1` [NA-32], with 3.13 µM; and `O=C(Nc1ccc(N2CCN(C(=O)c3cccs3)CC2)cc1)c1ccc(OCc2cccc(Cl)c2)cc1` [NA-33], with 1.62 µM; and `O=C(Nc1ccc(N2CCN(C(=O)c3cccs3)CC2)cc1)c1ccc(-c2ccncc2)cc1` [NA-38], with 3.46 µM.

Regarding `O=C(Nc1ccc(N2CCN(C(=O)c3cccs3)CC2)cc1)c1ccc(-c2ccccc2)cn1` [NA-39], the EC50 in test [1] (setting [4]) was 7.91 µM. Turning to `O=C(Nc1ccc(N2CCN(C(=O)c3cccs3)CC2)cc1)c1ccc(-c2ccccc2)nc1` [NA-41], in test [1] (setting [4]), the EC50 stood at 12.5 µM. Take `CCOc1cccc(COc2ccc(C(=O)Nc3ccc(N4CCN(C(=O)c5cccs5)CC4)cc3)cc2)c1` [NA-42, 4-((3-ethoxybenzyl)oxy)-N-(4-(4-(thiophene-2-carbonyl)piperazin-1-yl)phenyl)benzamide]: the “plasma IL-6 and MCP1 expression in vivo” value in test [2] is given as “robust expression”. The “IP-10 induction in human monocyte-derived macrophages” value in test [3] is “dose-dependent IP-10 induction”. For `COc1ccc(C(=O)Nc2ccc(OCc3ccccc3)cc2)cc1[N+](=O)[O-]` [NA-44], in test [1] (setting [4]), the EC50 came to 0.92 µM. As for `O=C(Nc1ccc(N2CCN(C(=O)c3cccs3)CC2)cc1)c1ccc(OCc2ccccc2)nc1` [NA-59], the concentration for a half-maximal effect (EC50) in test [1] (setting [4]) is approximately 2.57 µM. With `Cc1ccc(NC(=O)c2cc(NC(=O)c3ccccc3)ccc2N2CCOCC2)cc1Cl` [NB-1], in test [1] (setting [5]), the EC50 amounted to 2.54 µM.

On to `Cc1ccc(NC(=O)c2cc(NC(=O)Cc3ccccc3)ccc2N2CCOCC2)cc1Cl` [NB-3], for which the activation at 25 µM in test [1] (THP1-Dual, 24 h, Human Reporter Cell Line THP1, @25 uM, read-out: THP1 NFkB % activation at peak) is 38%. Take `Cc1ccc(NC(=O)c2cc(NC(=O)c3cccs3)ccc2N2CCOCC2)cc1Cl` [NB-8]: in test [1] (setting [5]), the EC50 worked out at 13.9 µM. Still for that read-out and setting: the result for `Cc1ccc(NC(=O)c2cc(NC(=O)c3cccs3)ccc2N2CCOCC2)cc1` [NB-17] reads approximately 3.14 µM; that for `O=C(Nc1ccc(N2CCOCC2)c(C(=O)Nc2ccc(OCc3ccccc3)cc2)c1)c1cccs1` [NB-18], 3.66 µM; that for `Cc1ccc(NC(=O)c2cc(NC(=O)c3cccs3)ccc2N2CCOCC2)cc1Br` [NB-23], 4.59 µM. For `Cc1cc(NC(=O)c2sc3cc(Cl)ccc3c2Cl)ccc1NC(=O)c1ccco1` [NC-2], in test [1] (setting [4]), the EC50 stood at 15.4 µM. Take `COc1ccc(C(=O)Nc2cc(-c3nc4cc(C)c(C)cc4o3)ccc2C)cc1[N+](=O)[O-]` [ND13, N-(5-(5,6-dimethylbenzo[d]oxazol-2-yl)-2-methylphenyl)-4-methoxy-3-nitrobenzamide]: the EC50 in test [1] (setting [5]) is 0.556 µM. The same measure, in the same setting: the result for `COc1ccc(C(=O)Nc2cc(-c3nc4ccccc4s3)ccc2C)cc1[N+](=O)[O-]` [ND52, N-[5-(1,3-benzothiazol-2-yl)-2-methylphenyl]-4-methoxy-3-nitrobenzamide] reads approximately 5.51 µM; that for `COc1ccc(C(=O)Nc2nc(-c3cc4ccccc4oc3=O)cs2)cc1` [ND-1], approximately 12.7 µM; that for `COc1ccc(C(=O)Nc2cc(-c3nc4cc(C(C)C)ccc4o3)ccc2C)cc1[N+](=O)[O-]` [ND-2], 4.47 µM. For `CC(C)CC(=O)Nc1ccc2oc(-c3cccc(I)c3)nc2c1` [ND-5], the EC50 in test [1] (setting [5]) was 12.3 µM. Regarding `O=C(Cc1ccc(Cl)cc1)Nc1cccc(-c2nnc(-c3ccco3)o2)c1` [ND-7], the EC50 in test [1] (setting [5]) stood at 6 µM.

On to `COc1ccc(C(=O)Nc2cc(-c3nc4cc(C)c(C)cc4o3)ccc2C)cc1[N+](=O)[O-]` [ND-13, N-(5-(5,6-dimethylbenzo[d]oxazol-2-yl)-2-methylphenyl)-4-methoxy-3-nitrobenzamide], for which, in test [2], the “plasma IL-6 and MCP1 expression in vivo” value is given as “robust”. Also, the “IP-10 induction in human monocyte-derived macrophages” value in test [3] is “dose-dependent IP-10 induction”. With `COc1ccc(-c2nc3cc(C(C)C)ccc3o2)cc1NC(=O)c1ccc(C)c([N+](=O)[O-])c1` [ND-16], the EC50 in test [1] (setting [5]) was 3.25 µM. Turning to `COc1ccc(C(=O)Nc2cc(-c3nc4ccccc4s3)ccc2C)cc1[N+](=O)[O-]` [ND-38], the EC50 in test [1] (Human Reporter Cell Line THP1) was approximately 3.12 µM. `COc1ccc(C(=O)Nc2cccc(-c3nc4ncccc4o3)c2)cc1Br` [ND-47]: the EC50 in test [1] (setting [5]) came out at 2.1 µM. The same measure, in the same setting: then `Cc1ccc(-c2nc3ccccc3s2)cc1NC(=O)c1cccc(Cl)c1` [ND-80], with approximately 6.55 µM; and `ClCCCOc1ccc(-c2nc3cc(OCCCN4CCCC4)ccc3o2)cc1` [ND-94], with approximately 23.6 µM. On the same count and under the same terms, the result for `COCOc1ccc2oc(-c3ccc(C)c(NC(=O)c4ccc(OC)c([N+](=O)[O-])c4)c3)nc2c1` [ND-95, 4-methoxy-N-(5-(5-(methoxymethoxy)benzo[d]oxazol-2-yl)-2-methylphenyl)-3-nitrobenzamide] reads 1.27 µM; that for `COCOc1ccc2oc(-c3ccc(C)c([N+](=O)[O-])c3)nc2c1` [ND-96], approximately 4.09 µM.

What is called EC50 is the concentration giving half of the maximal effect.

Values taken from patent US20220395500A1, “SMALL MOLECULE ACTIVATORS OF INTERFERON REGULATORY FACTOR 3 AND METHODS OF USE THEREOF” (Neuralexo, Inc., priority 2020, published 2022).
